Results as given in the supplement of paper PMC4862054.

How the values were obtained:
Conditions in all cases: incubation time: 72 h
[1] = test system: MFM-223; assay: normalised response (% of control), CellTiter-Glo; higher = more viable cells (100 = DMSO, 0 = benzethonium chloride kill control)
In short: (§1)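 Two readouts were taken after 72 h: CellTox Green fluorescence (485/520 nm) first, then CellTiter-Glo luminescence after 10 min at room temperature. Breast cancer cell lines had been seeded as 20 µl suspension into 384-well plates holding compound at 5 concentrations in 10-fold steps across a compound-specific 10,000-fold range. Each value is a normalised signal at a single concentration, with plates scaled to 0.1 % DMSO (100) and a positive kill control (0).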

[2] = test system: DU-4475; assay: as above
In short: as §1

[3] = test system: MDA-MB-436; assay: as above
In short: as §1

[4] = test system: HDQ-P1; assay: as above
In short: as §1

[5] = test system: BT-474; assay: as above
In short: as §1

[6] = test system: HCC1599; assay: as above
In short: as §1

[7] = test system: Hs578T; assay: as above
In short: as §1

[8] = test system: BT-549; assay: as above
In short: as §1

[9] = test system: MDA-MB-468; assay: as above
In short: as §1

[10] = test system: CAL-120; assay: as above
In short: as §1

[11] = test system: CAL-148; assay: as above
In short: as §1

[12] = test system: MCF-10A; assay: as above
In short: as §1

[13] = test system: DU-4475; assay: normalised viability (% of control), CellTiter-Blue; higher = more viable cells (about 100 = DMSO control)
Protocol: (§2)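 DSRT, CellTiter-Blue viability, 72 h incubation. Signal is normalised to DMSO and benzethonium chloride controls. Value is the normalised response at dose 7.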

[14] = test system: CAL-51; assay: as above
Protocol: as §2

[15] = test system: CAL-85-1; assay: as above
Protocol: as §2

[16] = test system: HDQ-P1; assay: as above
Protocol: as §2

[17] = test system: CAL-148; assay: as above
Protocol: as §2

[18] = test system: MDA-MB-453; assay: as above
Protocol: as §2

SMILES	normalised response [1]	normalised response [2]	normalised response [3]	normalised response [4]	normalised response [5]	normalised response [6]	normalised response [7]	normalised response [8]	normalised response [9]	normalised response [10]	normalised response [11]	normalised response [12]	normalised viability [13]	normalised viability [14]	normalised viability [15]	normalised viability [16]	normalised viability [17]	normalised viability [18]
COc1ncc(-c2ccc3nccc(-c4ccnnc4)c3c2)cc1NS(=O)(=O)c1ccc(F)cc1F (100 nM)	37%	78.1%	46.7%	25.5%	52.7%	55.4%	39%	27.1%	37.9%	45.6%	42.5%	31.8%	61.5%	17.2%	30.5%	22.3%	25%	7.68%
C[C@@]1(C(=O)Nc2ccc(F)nc2)CCCN1c1nc(Nc2cc(C3CC3)n[nH]2)c2cccn2n1 (1000 nM)	58.1%	80.4%	66.9%	46.7%	62.8%	72.8%	86.5%	61.4%	21.4%	59.3%	84.9%	20.4%	78.6%	63.4%	49.4%	32.3%	79.6%	56.6%
COc1c(C)cnc(Cn2cnc3c(Cl)nc(N)nc32)c1C [BIIB021] (1000 nM)	40.2%	0.4%	42.5%	29.5%	31.1%	54.3%	55.5%	37.3%	43.4%	53.6%	23.9%	15.4%	0.09%	26.1%	33.4%	46.8%	14.6%	6.04%
CC(C)C[C@H](NC(=O)[C@H](Cc1ccccc1)NC(=O)c1cnccn1)B(O)O [Bortezomib] (100 nM)	3.48%	13%	2.39%	3.18%	1.56%	56.6%	0.6%	1.75%	0.63%	10.4%	22.6%	68.6%	2.48%	2.63%	5.3%	1.22%	18.2%	19.4%
CS(=O)(=O)OCCCCOS(C)(=O)=O [Busulfan] (10000 nM)	107%	107%	101%	98.3%	93.7%	103%	109%	97.3%	109%	94.9%	102%	98.9%	103%	85.6%	108%	88.2%	120%	104%
C#Cc1cccc(Nc2ncnc3cc(OC)c(OCCCCCCC(=O)NO)cc23)c1 [CUDC-101] (1000 nM)	33.4%	64.1%	73.7%	70%	72.9%	47.9%	73.9%	66.9%	18.8%	74.2%	60.3%	28.9%	60.9%	97.7%	24.9%	50%	47%	19.1%
COc1cccc2c1C(=O)c1c(O)c3c(c(O)c1C2=O)C[C@@](O)(C(C)=O)C[C@@H]3O[C@H]1C[C@H](N)[C@H](O)[C@H](C)O1 [Daunorubicin] (100 nM)	115%	86.9%	77.9%	91.8%	82.5%	103%	92.6%	68.9%	54.9%	93.1%	64.8%	103%	41.7%	38%	77.2%	94.9%	30.8%	94.8%
CN1CCN(c2ccc3nc(-c4c(N)c5c(F)cccc5[nH]c4=O)[nH]c3c2)CC1 [Dovitinib] (1000 nM)	95.4%	101%	101%	102%	95.1%	106%	101%	95.5%	93.7%	92.1%	94.9%	97.2%	94.7%	116%	78.3%	69.7%	90.7%	91.4%
O=c1[nH]c(=O)n([C@H]2C[C@H](O)[C@@H](CO)O2)cc1F [Floxuridine] (1000 nM)	104%	92.8%	67.9%	83.9%	67.1%	67.7%	13.5%	85.4%	69.4%	39.8%	92.4%	106%	91.6%	31.9%	53.1%	86.5%	50.6%	81.9%
O=c1[nH]cc(F)c(=O)[nH]1 [Fluorouracil] (1000 nM)	102%	90.2%	75.6%	92.2%	111%	84%	97.1%	104%	98.7%	106%	95.6%	116%	105%	102%	74.2%	96.1%	75.5%	91.7%
